Test results published in PubChem BioAssay AID1745844 (Carcinogenic Potency Database (CPDB), 2022).
Calls of active or inactive are those of the source. No rule for the calls is given here.

Test system: rodent lifetime carcinogenesis bioassay, tumor incidence TD50
Assay: carcinogenic potency in animals, long-term in vivo studies, CPDB compilation (AID 1745844)

In the case of BrC(Br)Br, the TD50 (mouse, strain B6C3F1, females, by gavage, site: liver + spleen, lesion: hemangiosarcoma, dosed 103 weeks, study length 106 weeks) is reported as 1110 mg/kg/day (inactive), the TD50 (mouse, strain B6C3F1, females, by gavage, site: liver, lesion: hepatocellular adenoma + hepatocellular carcinoma + neoplastic nodule, dosed 103 weeks, study length 106 weeks) is reported as 570 mg/kg/day and the TD50 (mouse, strain B6C3F1, males, by gavage, site: any site (literature study), lesion: several types, types named in the paper, dosed 103 weeks, study length 106 weeks) is reported as 41 mg/kg/day. The TD50 (mouse, strain B6C3F1, males, by gavage, site: liver, lesion: hepatocellular adenoma + hepatocellular carcinoma + neoplastic nodule, dosed 103 weeks, study length 106 weeks) was 53.6 mg/kg/day, the TD50 (mouse, strain B6C3F1, males, by gavage, site: lung, lesion: alveolar/bronchiolar adenoma + alveolar/bronchiolar carcinoma, dosed 103 weeks, study length 106 weeks) was 2450 mg/kg/day and the TD50 (mouse, strain B6C3F1, males, by gavage, site: subcutaneous tissue, lesion: fibrosarcoma + sarcoma, dosed 103 weeks, study length 106 weeks) was 81.9 mg/kg/day (inactive). It also gave a TD50 (rat, strain Fischer 344, females, by gavage, site: large intestine, lesion: adenocarcinoma + polypoid adenoma, dosed 103 weeks, study length 106 weeks) of 469 mg/kg/day, a TD50 (rat, strain Fischer 344, females, by gavage, site: large intestine, lesion: polypoid adenoma, dosed 103 weeks, study length 106 weeks) of 632 mg/kg/day and a TD50 (rat, strain Fischer 344, females, by gavage, site: liver, lesion: hepatocellular adenoma + hepatocellular carcinoma + neoplastic nodule, dosed 103 weeks, study length 106 weeks) of 676 mg/kg/day. The TD50 (rat, strain Fischer 344, males, by gavage, site: any site (literature study), lesion: several types, types named in the paper, dosed 103 weeks, study length 105 weeks) was 513 mg/kg/day, the TD50 (rat, strain Fischer 344, males, by gavage, site: large intestine, lesion: adenocarcinoma + polypoid adenoma, dosed 103 weeks, study length 105 weeks) was 1050 mg/kg/day and the TD50 (rat, strain Fischer 344, males, by gavage, site: testis, lesion: interstitial-cell adenoma, bilateral + interstitial-cell adenoma, dosed 103 weeks, study length 105 weeks) was 75 mg/kg/day. For the same compound, the TD50 (rat, strain Fischer 344, males, by gavage, site: thyroid gland, lesion: follicular-cell carcinoma, dosed 103 weeks, study length 105 weeks) was 656 mg/kg/day.
[O]=[Mo](=[O])=[O] gave a TD50 (mouse, strain B6C3F1, females, inhaled, site: liver, lesion: hepatocellular adenoma + hepatoblastoma + hepatocellular carcinoma, dosed 105 weeks, study length 105 weeks) of 4450 mg/kg/day, a TD50 (mouse, strain B6C3F1, females, inhaled, site: lung, lesion: alveolar/bronchiolar adenoma + alveolar/bronchiolar carcinoma, dosed 105 weeks, study length 105 weeks) of 68.3 mg/kg/day and a TD50 (mouse, strain B6C3F1, females, inhaled, site: lung, lesion: alveolar/bronchiolar adenoma, dosed 105 weeks, study length 105 weeks) of 97.8 mg/kg/day. It also gave a TD50 (mouse, strain B6C3F1, females, inhaled, site: subcutaneous tissue, lesion: sarcoma, dosed 105 weeks, study length 105 weeks) of 162 mg/kg/day, a TD50 (mouse, strain B6C3F1, males, inhaled, site: liver, lesion: hepatocellular adenoma + hepatoblastoma + hepatocellular carcinoma, dosed 105 weeks, study length 105 weeks) of 11.7 mg/kg/day and a TD50 (mouse, strain B6C3F1, males, inhaled, site: liver, lesion: hepatocellular carcinoma, dosed 105 weeks, study length 105 weeks) of 14.8 mg/kg/day. The TD50 (mouse, strain B6C3F1, males, inhaled, site: lung, lesion: alveolar/bronchiolar adenoma + alveolar/bronchiolar carcinoma, dosed 105 weeks, study length 105 weeks) was 3.21 mg/kg/day, the TD50 (mouse, strain B6C3F1, males, inhaled, site: lung, lesion: alveolar/bronchiolar carcinoma, dosed 105 weeks, study length 105 weeks) was 4.15 mg/kg/day and the TD50 (rat, strain Fischer 344, females, inhaled, site: any site (literature study), lesion: several types, types named in the paper, dosed 105 weeks, study length 105 weeks) was 14 mg/kg/day. For the same compound, the TD50 (rat, strain Fischer 344, females, inhaled, site: clitoral gland, lesion: adenoma + carcinoma, dosed 105 weeks, study length 105 weeks) was 5.04 mg/kg/day, the TD50 (rat, strain Fischer 344, females, inhaled, site: mammary gland, lesion: adenoma + fibroadenoma, dosed 105 weeks, study length 105 weeks) was 0.77 mg/kg/day (inactive) and the TD50 (rat, strain Fischer 344, males, inhaled, site: liver, lesion: hepatocellular adenoma + hepatoblastoma + hepatocellular carcinoma, dosed 105 weeks, study length 105 weeks) was 128 mg/kg/day. It also gave a TD50 (rat, strain Fischer 344, males, inhaled, site: lung, lesion: alveolar/bronchiolar adenoma + alveolar/bronchiolar carcinoma, dosed 105 weeks, study length 105 weeks) of 21.8 mg/kg/day and a TD50 (rat, strain Fischer 344, males, inhaled, site: lung, lesion: alveolar/bronchiolar adenoma, dosed 105 weeks, study length 105 weeks) of 31.6 mg/kg/day.
CC(Oc1cc(Cl)c(Cl)cc1Cl)C(=O)O (centres undefined) was tested, and the carcinogen call (mouse, strain B6AKF1, females, oral dosing, site: any site (literature study), lesion: several types, types named in the paper, dosed 76 weeks, study length 76 weeks) was “negative (inactive)”, the carcinogen call (mouse, strain B6AKF1, females, oral dosing, site: liver, lesion: hepatoma, dosed 76 weeks, study length 76 weeks) was “negative (inactive)” and the carcinogen call (mouse, strain B6AKF1, females, oral dosing, site: lung, lesion: adenoma, dosed 76 weeks, study length 76 weeks) was “negative (inactive)”. For the same compound, the carcinogen call (mouse, strain B6AKF1, males, oral dosing, site: any site (literature study), lesion: several types, types named in the paper, dosed 76 weeks, study length 76 weeks) was “negative (inactive)”, the carcinogen call (mouse, strain B6AKF1, males, oral dosing, site: liver, lesion: hepatoma, dosed 76 weeks, study length 76 weeks) was “negative (inactive)” and the carcinogen call (mouse, strain B6AKF1, males, oral dosing, site: lung, lesion: adenoma, dosed 76 weeks, study length 76 weeks) was “negative (inactive)”. For the same compound, the TD50 (mouse, strain B6C3F1, females, oral dosing, site: any site (literature study), lesion: several types, types named in the paper, dosed 76 weeks, study length 76 weeks) was 52.6 mg/kg/day (inactive), the carcinogen call (mouse, strain B6C3F1, females, oral dosing, site: liver, lesion: hepatoma, dosed 76 weeks, study length 76 weeks) was “negative (inactive)” and the carcinogen call (mouse, strain B6C3F1, females, oral dosing, site: lung, lesion: several types, types named in the paper, dosed 76 weeks, study length 76 weeks) was “negative (inactive)”. For the same compound, the TD50 (mouse, strain B6C3F1, males, oral dosing, site: any site (literature study), lesion: several types, types named in the paper, dosed 76 weeks, study length 76 weeks) was 9.07 mg/kg/day (inactive), the TD50 (mouse, strain B6C3F1, males, oral dosing, site: liver, lesion: hepatoma, dosed 76 weeks, study length 76 weeks) was 16.6 mg/kg/day (inactive) and the TD50 (mouse, strain B6C3F1, males, oral dosing, site: lung, lesion: adenoma, dosed 76 weeks, study length 76 weeks) was 95.2 mg/kg/day (inactive).
